Data from ChEMBL document CHEMBL5046315, “CRCM5484: A BET-BDII Selective Compound with Differential Anti-leukemic Drug Modulation” (J Med Chem, 2022).
Activity calls are given as the source filed them. No cut-off for these calls is given here.

Assays:
[1] = biological target: T1, Bromodomain-containing protein 3 (Homo sapiens, UniProt Q15059); experiment: Inhibition of BRD3-BD1 domain (unknown origin) incubated for 6 hrs by HTRF method
[2] = species: Homo sapiens; experiment: Selectivity ratio of IC50 for BRD3-BD1 (unknown origin) to IC50 for BRD3-BD2 (unknown origin)
[3] = biological target: T1, Bromodomain-containing protein 3; experiment: Inhibition of BRD3-BD2 (unknown origin) incubated for 6 hrs by HTRF method
[4] = species: Homo sapiens; experiment: Selectivity ratio of IC50 for BRD4-BD1 (unknown origin) to IC50 for BRD4-BD2 (unknown origin)
[5] = biological target: T2, Bromodomain-containing protein 4 (Homo sapiens, UniProt O60885); experiment: Inhibition of BRD4-BD2 (unknown origin) incubated for 6 hrs by HTRF method
[6] = test system: CCRF-CEM; experiment: Cytotoxicity against human CCRF-CEM cells assessed as reduction in cell viability incubated for 72 hrs; type: functional, cell-based
[7] = test system: NB-4; experiment: Cytotoxicity against human NB-4 cells assessed as reduction in cell viability incubated for 72 hrs; type: functional, cell-based; settings: NB-4, 72 h
[8] = test system: MOLM-14; experiment: cells; settings: Homo sapiens, MOLM-14, 72 h
Description: Cytotoxicity against human MOLM-14 cells assessed as reduction in cell viability incubated for 72 hrs

[9] = test system: MOLM-14; experiment: Downregulation of Myc expression in human MOLM-14 cells incubated for 2 hrs by RT-PCR analysis; type: functional, cell-based; settings: dose 5.0 µM
[10] = test system: K562; experiment: Cytotoxicity against human K562 cells assessed as reduction in cell viability incubated for 72 hrs; type: functional, cell-based; settings: K562, 72 h
[11] = biological target: T3, Bromodomain-containing protein 2 (Homo sapiens, UniProt P25440); experiment: Inhibition of BRD2-BD2 (unknown origin) incubated for 6 hrs by HTRF method
[12] = biological target: T1, Bromodomain-containing protein 3; experiment: Binding affinity to human partial length BRD3-BD2 (G306 to P416) expressed in bacterial system assessed as dissociation constant by BROMOscan method
[13] = biological target: T3, Bromodomain-containing protein 2; experiment: Binding affinity to human partial length BRD2-BD2 (E348 to D455) expressed in bacterial system assessed as dissociation constant by BROMOscan method
[14] = biological target: T2, Bromodomain-containing protein 4; experiment: Binding affinity to human partial length BRD4-BD2 (K333 to E460 residues) expressed in bacterial system assessed as dissociation constant by BROMOscan method
[15] = test system: K562; experiment: Inhibition of IFNgamma induced MHC-1 expression in human K562 cells treated for 48 hrs by flow cytometric analysis; type: functional, cell-based; settings: dose 0.2-20 µM
[16] = biological target: T2, Bromodomain-containing protein 4; experiment: Inhibition of BRD4-BD1 (unknown origin) incubated for 6 hrs by HTRF method
[17] = biological target: T2, Bromodomain-containing protein 4; experiment: Inhibition of BRD4-BD2 (unknown origin) (K333 to E460 residues) expressed in bacterial system assessed as dissociation constant by BROMOscan method
[18] = biological target: T2, Bromodomain-containing protein 4; experiment: Inhibition of BRD4-BD1 (unknown origin) (N44 to E168 residues) expressed in bacterial expression system assessed as dissociation constant by BROMOscan method
[19] = biological target: T1, Bromodomain-containing protein 3; experiment: Inhibition of BRD3-BD1 (unknown origin) assessed as dissociation constant by TR-FRET method

T1 sequence (Q15059 whole entry, the tested form may be a part): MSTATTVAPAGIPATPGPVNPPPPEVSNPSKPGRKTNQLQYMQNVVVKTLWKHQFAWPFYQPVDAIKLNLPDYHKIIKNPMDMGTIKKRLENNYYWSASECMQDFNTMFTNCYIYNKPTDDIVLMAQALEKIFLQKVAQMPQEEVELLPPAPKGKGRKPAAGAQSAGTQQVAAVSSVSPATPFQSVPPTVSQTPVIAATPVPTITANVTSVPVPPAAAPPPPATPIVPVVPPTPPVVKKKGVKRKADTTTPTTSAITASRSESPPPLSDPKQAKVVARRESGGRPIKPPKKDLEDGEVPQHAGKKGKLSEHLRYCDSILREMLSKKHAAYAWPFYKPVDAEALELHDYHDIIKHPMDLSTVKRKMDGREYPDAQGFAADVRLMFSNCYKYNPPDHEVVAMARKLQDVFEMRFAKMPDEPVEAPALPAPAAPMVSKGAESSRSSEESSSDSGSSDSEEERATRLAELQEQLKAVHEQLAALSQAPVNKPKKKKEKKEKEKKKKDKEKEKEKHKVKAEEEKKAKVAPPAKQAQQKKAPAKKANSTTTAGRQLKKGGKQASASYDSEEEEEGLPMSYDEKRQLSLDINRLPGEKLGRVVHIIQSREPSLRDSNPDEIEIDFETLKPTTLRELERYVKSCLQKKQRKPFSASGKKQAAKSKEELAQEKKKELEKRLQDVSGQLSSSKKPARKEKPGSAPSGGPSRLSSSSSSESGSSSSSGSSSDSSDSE
T3 sequence (P25440 whole entry): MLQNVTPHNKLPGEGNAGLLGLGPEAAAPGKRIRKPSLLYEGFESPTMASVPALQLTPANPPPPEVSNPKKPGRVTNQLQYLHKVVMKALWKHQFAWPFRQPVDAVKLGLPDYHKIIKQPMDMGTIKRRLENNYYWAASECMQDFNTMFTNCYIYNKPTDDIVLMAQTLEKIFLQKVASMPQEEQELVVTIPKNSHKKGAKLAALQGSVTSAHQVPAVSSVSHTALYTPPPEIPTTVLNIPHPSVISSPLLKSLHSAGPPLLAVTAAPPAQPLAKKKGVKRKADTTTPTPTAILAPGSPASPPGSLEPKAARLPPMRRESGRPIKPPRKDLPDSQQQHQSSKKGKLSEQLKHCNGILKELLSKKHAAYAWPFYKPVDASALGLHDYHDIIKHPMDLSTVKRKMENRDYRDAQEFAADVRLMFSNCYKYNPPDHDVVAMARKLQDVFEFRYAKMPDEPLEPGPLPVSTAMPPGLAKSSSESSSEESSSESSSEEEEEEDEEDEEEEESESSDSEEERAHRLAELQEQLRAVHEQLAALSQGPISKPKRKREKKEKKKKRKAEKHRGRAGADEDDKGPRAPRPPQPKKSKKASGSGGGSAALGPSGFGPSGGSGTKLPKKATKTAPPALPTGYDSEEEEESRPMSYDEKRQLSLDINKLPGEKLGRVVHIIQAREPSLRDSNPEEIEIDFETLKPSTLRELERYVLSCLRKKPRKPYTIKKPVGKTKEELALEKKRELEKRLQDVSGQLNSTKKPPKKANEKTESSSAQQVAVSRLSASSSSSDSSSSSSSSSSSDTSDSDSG

Row | SMILES | IC50 [1] | Ratio IC50 [2] | IC50 [3] | also measured
1 | CCOc1ccccc1NC(=O)CSc1nc2sc3c(c2c(=O)n1Cc1ccco1)CCN(C(C)=O)C3 | 4400 nM | 23 | 150 nM | 
2 | COc1cccc(NC(=O)CSc2nc3sc4c(c3c(=O)n2Cc2ccco2)CCN(C(C)=O)C4)c1 | 14000 nM | 9 | 300 nM | 
3 | CC(=O)N1CCc2c(sc3nc(SCC(=O)Nc4ccccc4Cl)n(Cc4ccco4)c(=O)c23)C1 | 2800 nM | 23 | 100 nM | 
4 | COc1ccc(NC(=O)CSc2nc3sc4c(c3c(=O)n2Cc2ccco2)CCN(C(C)=O)C4)cc1 | 2200 nM | 6 | 570 nM | 
5 | CCc1cccc(C)c1NS(=O)(=O)c1cc(-c2c(C)noc2C)ccc1C |  |  |  | Ratio IC50 [4]: 7.8; IC50 [5]: 1100 nM
6 | CC(=O)N1CCc2c(sc3nc(SCC(=O)Nc4cccc(Cl)c4)n(Cc4ccco4)c(=O)c23)C1 | 3100 nM | 9 | 490 nM | 
7 | CC(=O)c1cccc(NC(=O)CSc2nc3sc4c(c3c(=O)n2Cc2ccco2)CCN(C(C)=O)C4)c1 | 4100 nM | 9 | 170 nM | 
8 | CC(=O)N1CCc2c(sc3nc(SCC(=O)Nc4ccc(F)cc4F)n(Cc4ccco4)c(=O)c23)C1 | 3500 nM | 13 | 380 nM | 
9 | COc1cc(OC)c2c(=O)[nH]c(-c3cc(C)c(OCCO)c(C)c3)nc2c1 [APABETALONE] |  |  |  | EC50 [6]: > 5000 nM; EC50 [7]: > 5000 nM; EC50 [8]: 6700 nM; Activity [9]: Dose-Dependent Effect; EC50 [10]: > 5000 nM
10 | CC(=O)N1CCc2c(sc3nc(SCC(=O)Nc4ccc(F)c(F)c4)n(Cc4ccco4)c(=O)c23)C1 | 4900 nM | 8 | 470 nM | 
11 | CCC(=O)N1CCc2c(sc3[nH]c(=O)n(C4CCCCC4)c(=O)c23)C1 | > 25000 nM |  |  | 
12 | CC(=O)N1CCc2c(sc3nc(SCC(=O)Nc4ccccc4F)n(Cc4ccco4)c(=O)c23)C1 | 7500 nM | 20 | 210 nM | 
13 | CCOc1ccc(NC(=O)CSc2nc3sc4c(c3c(=O)n2Cc2ccco2)CCN(C(C)=O)C4)cc1 | 1300 nM | 4 | 880 nM | 
14 | CC(=O)N1CCc2c(sc3nc(SCC(=O)Nc4cc(Cl)ccc4C)n(Cc4ccco4)c(=O)c23)C1 | 8500 nM |  | 85 nM | IC50 [11]: 120 nM; IC50 [12]: 325 nM; Ratio IC50 [4]: 4.4; IC50 [13]: 2600 nM; IC50 [5]: 900 nM; IC50 [14]: 775 nM
15 | COc1ccccc1NC(=O)CSc1nc2sc3c(c2c(=O)n1Cc1ccco1)CCN(C(C)=O)C3 |  | 31 | 72 nM | 
16 | Cc1ccc(-c2c(C)noc2C)cc1S(=O)(=O)Nc1cccc(C)c1C |  |  |  | Ratio IC50 [4]: 12; IC50 [5]: 900 nM
17 | CC(=O)c1ccc(NC(=O)CSc2nc3sc4c(c3c(=O)n2Cc2ccco2)CCN(C(C)=O)C4)cc1 | 1500 nM | 4 | 320 nM | 
18 | CC(=O)N1CCc2c(sc3nc(SCC(=O)Nc4ccccc4)n(Cc4ccco4)c(=O)c23)C1 | 14000 nM | 100 | 140 nM | 
19 | CC(=O)N1CCc2c(sc3nc(SCC(=O)Nc4ccc(C)cc4)n(Cc4ccco4)c(=O)c23)C1 | 3200 nM | 5 | 630 nM | 

Row | SMILES | IC50 [1] | Ratio IC50 [2] | IC50 [3] | also measured
20 | CC(=O)N1CCc2c(sc3nc(SCC(=O)Nc4cc(Cl)ccc4C)n(-c4ccc(C)o4)c(=O)c23)C1 | 7800 nM | 19 | 410 nM | 
21 | CC(=O)N1CCc2c(sc3nc(SCC(=O)Nc4ccc(F)c(Cl)c4)n(Cc4ccco4)c(=O)c23)C1 | 3800 nM | 7 | 740 nM | 
22 | Cc1cc(F)ccc1NS(=O)(=O)c1cc(-c2c(C)noc2C)ccc1C |  |  |  | Ratio IC50 [4]: 4.9; IC50 [5]: 1500 nM
23 | CSc1cccc(NC(=O)CSc2nc3sc4c(c3c(=O)n2Cc2ccco2)CCN(C(C)=O)C4)c1 | 6500 nM | 11 | 410 nM | 
24 | Cc1sc2c(c1C)C(c1ccc(Cl)cc1)=N[C@@H](CC(=O)Nc1ccc(O)cc1)c1nnc(C)n1-2 [BIRABRESIB] |  |  |  | Activity [15]: Active; EC50 [8]: 80 nM; Activity [9]: Dose-Dependent Effect
25 | CC(=O)N1CCc2c(sc3nc(SCC(=O)Nc4ccccc4C)n(Cc4ccco4)c(=O)c23)C1 | 3000 nM | 15 | 220 nM | 
26 | CC(=O)N1CCc2c(sc3nc(SCC(=O)Nc4cc(F)ccc4F)n(Cc4ccco4)c(=O)c23)C1 | 4500 nM | 24 | 170 nM | 
27 | Cc1nn(CCO)c(C)c1-c1c(C)c(-c2ccc(O)cc2)nc(N)c1C#N |  |  |  | Ratio IC50 [4]: 9; IC50 [5]: 900 nM; IC50 [16]: 8200 nM
28 | CC(=O)N1c2ccc(C3=CCNCC3)cc2N(Cc2ccccc2CO)C[C@@H]1C1CC1 |  |  |  | Kd [17]: 63 nM; Kd [18]: 3000 nM
29 | CC(=O)N1CCc2c(sc3nc(SCC(=O)Nc4ccccc4)n(-c4ccccc4)c(=O)c23)C1 | > 25000 nM | > 5 | 5500 nM | 
30 | CC(=O)Nc1c(F)cc(C(=O)N[C@H]2CC[C@H](O)CC2)cc1O[C@@H](C)c1ccccc1 [GSK046] |  |  |  | EC50 [6]: > 5000 nM; EC50 [7]: > 5000 nM; EC50 [8]: 14000 nM; IC50 [19]: 3600 nM; Activity [9]: Dose-Dependent Effect; EC50 [10]: > 5000 nM
31 | COc1cc(C(=O)C(=Cc2ccncc2)c2nc3ccccc3o2)cc(OC)c1OC |  |  |  | Ratio IC50 [4]: 5.4; IC50 [5]: 800 nM
32 | O=C1c2ccc(Oc3cccc(Oc4ccc5c(c4)C(=O)N(c4ccc(O)cc4)C5=O)c3)cc2C(=O)N1c1ccc(O)cc1 |  |  |  | Ratio IC50 [4]: 0.4; IC50 [5]: 3200 nM
33 | CC(=O)N1CCc2c(sc3nc(SCC(=O)Nc4ccc(C)c(F)c4)n(Cc4ccco4)c(=O)c23)C1 | 4200 nM | 31 | 210 nM | 
34 | CC(=O)N1CCc2c(sc3nc(SCC(=O)Nc4cc(Cl)ccc4C)n(-c4ccccc4)c(=O)c23)C1 | > 25000 nM | > 4 | 6300 nM | 
35 | CC(=O)N1CCc2c(sc3nc(SCC(=O)Nc4ccc(Cl)cc4)n(Cc4ccco4)c(=O)c23)C1 | 4500 nM | 8 | 530 nM | 
36 | CC(=O)N1CCc2c(sc3nc(SCC(=O)Nc4cccc(C)c4)n(Cc4ccco4)c(=O)c23)C1 |  | 12 | 440 nM | 
37 | CC(=O)N1CCc2c(sc3nc(SCC(=O)Nc4ccc(F)cc4)n(Cc4ccco4)c(=O)c23)C1 | 3600 nM | 7 | 420 nM | 
